From patent US6172038A, “Antipathogenic peptides and compositions comprising them” (priority 1996, dated 2001)
Where no end group is shown, it is not given here. [ ]: non-standard residue; d: D form.

How the values were obtained:
[1] = test system: human red blood cells (hRBC); assay: Hemolysis of human red blood cells; assay type: cell-based; settings: for % hemolysis at 50 μM peptide / % hemolysis at 100 μM: 30 min at 37° C.; for hemolytic activity (dose response): up to maximum concentration tested (50 μM)
Procedure: (ix) Hemolysis of human red blood cells. The peptides were tested for their hemolytic activities against human red blood cells (hRBC). Fresh hRBC with EDTA were rinsed 3 times with PBS (35 mM phosphate buffer/0.15 M NaCl, pH 7.3) by centrifugation for 10 min at 800 g and resuspended in PBS. Peptides dissolved in PBS were then added to 50 μL of a solution of the stock hRBC in PBS to reach a final volume of 100 μL (final erythrocyte concentration, 5% v/v). The resulting suspension was incubated under agitation for 30 min at 37° C. The samples were then centrifuged at 800 g for 10 min. Release of hemoglobin was monitored by measuring the absorbance of the supernatant at 540 nm. Controls for zero hemolysis (blank) and 100% hemolysis consisted of hRBC suspended in PBS and Triton 1%, respectively.

[2] = test system: Acinetobacter calcoaceticus Ac11; assay: Antibacterial activity (MIC), growth inhibition in 96-well plates; assay type: cell-based; settings: 100% inhibition of growth after 18-20 h at 37° C.
[3] = test system: Escherichia coli D21; assay: as above; assay type: cell-based; settings: 100% inhibition of growth after 18-20 h at 37° C.
[4] = test system: Bacillus megaterium Bm11; assay: as above; assay type: cell-based; settings: 100% inhibition of growth after 18-20 h at 37° C.
[5] = phosphatidylglycerol/phosphatidylcholine (Beschiaschvili and Seelig, 1990); cited from earlier work
[6] = Membrane permeation, diffusion potential assay; settings: zwitterionic vesicles
Procedure: (xi) Membrane permeation induced by the peptides. Membrane permeation was assessed utilizing the diffusion potential assay (Loew et al., 1983; Sims et al., 1974) as previously described (Shai et al., 1991). In a typical experiment, in a glass tube, 4 μl of a liposomes suspension (final phospholipids concentration of 33 μM), in a K^+ containing buffer (50 mM K2 SO4, 25 mM HEPES-SO4^-2, pH 6.8), was diluted in 1 ml of an isotonic K^+ free buffer (50 mM Na2 SO4, 25 mM HEPES-SO4^-2, pH 6.8), and the fluorescent, potential-sensitive dye diS-C2 -5 was then added. Valinomycin (1 μl of 10^-7 M) was added to the suspension in order to slowly create a negative diffusion potential inside the vesicles, which led to a quenching of the dye's fluorescence. Once the fluorescence had stabilized, which took 3-10 minutes, peptides were added. The subsequent dissipation of the diffusion potential, as reflected by an increase in fluorescence, was monitored on a Perkin Elmer LS-50B spectrofluorometer, with the excitation set at 620 nm, the emission at 670 nm, and the gain adjusted to 100%. The percentage of fluorescence recovery, Ft, was defined as:
where I0 =the initial fluorescence, If =the total fluorescence observed before the addition of valinomycin, and It =the fluorescence observed after adding the peptide at time t.

Molecule: CC(C)C[C@H](NC(=O)[C@H](CC(C)C)NC(=O)[C@@H](CC(C)C)NC(=O)[C@@H](CC(C)C)NC(=O)[C@H](CC(C)C)NC(=O)[C@@H](N)CCCCN)C(=O)N[C@@H](CCCCN)C(=O)N[C@H](CC(C)C)C(=O)N[C@@H](CC(C)C)C(=O)N[C@H](CC(C)C)C(=O)N[C@@H](CC(C)C)C(=O)N[C@@H](CCCCN)C(N)=O [Peptide 22]
- hemolytic activity (in words) [1]: considerable hemolytic activity

Molecule: Lys-Lys-Gly-Phe-Phe-Ala-Leu-lle-Er-Lys-Ile-Ile-Ser-Ser-Pro-Leu-Phe-Lys-Thr- Leu-Leu-Ser-Ala-Val-(NH--CH2 --CH2 --NH2)2 [Peptide 5]
- Minimal Inhibitory Concentration A. calcoaceticus (Ac11) [2]: 3.5 µM
- Minimal Inhibitory Concentration E. coli (D21) [3]: 3.5 µM
- % hemolysis at 50 μM peptide [1]: 0%
- Minimal Inhibitory Concentration B. megaterium (Bm11) [4]: 0.75 µM

Molecule: (Lys-Leu-Leu-Leu-Lys-Leu-Lys-Leu-Lys-Leu-Leu-Lys-Cys-NH2)5 Lys-Leu-Leu-Leu-Lys-Leu-Leu-Leu-Lys-Leu-Leu-Lys-NH2 [Peptide 93]
- Minimal Inhibitory Concentration E. coli (D21) [3]: 0.1 µM
- % hemolysis at 100 μM [1]: 0%
- Minimal Inhibitory Concentration B. megaterium (Bm11) [4]: 0.02 µM

Molecule: CC[C@H](C)[C@H](NC(=O)[C@H](CCCCN)NC(=O)[C@H]1CCCN1C(=O)[C@@H](NC(=O)[C@H](CC(C)C)NC(=O)[C@H](C)NC(=O)[C@H](Cc1ccccc1)NC(=O)[C@H](Cc1ccccc1)NC(=O)CN)[C@@H](C)CC)C(=O)N[C@H](C(=O)N[C@@H](CO)C(=O)N[C@@H](CO)C(=O)N1CCC[C@H]1C(=O)N[C@@H](CC(C)C)C(=O)N[C@@H](Cc1ccccc1)C(=O)N[C@@H](CCCCN)C(=O)N[C@H](C(=O)N[C@H](CC(C)C)C(=O)N[C@H](CC(C)C)C(=O)N[C@@H](CO)C(=O)N[C@@H](C)C(=O)N[C@H](C(=O)NCC(=O)N[C@@H](CO)C(=O)N[C@@H](C)C(=O)N[C@@H](CC(C)C)C(=O)N[C@@H](CO)C(=O)N[C@@H](CO)C(=O)N[C@@H](CO)C(=O)NCC(=O)NCC(=O)N[C@@H](CCC(N)=O)C(=O)N[C@@H](CCC(=O)NCCN)C(=O)NCCN)C(C)C)[C@@H](C)O)[C@@H](C)CC [Peptide 1]
- hemolytic activity (dose response) [1]: practically devoid of hemolytic activity

Molecule: Gly-Phe-Phe-Ala-Leu-Ile-Pro-Lys-Ile-Ile-Ser-Ser-Pro-Leu-Phe-Lys-Thr-Leu-Leu-Ser-Ala-Val-(NH--CH2 --CH2 --NH2)2 (GFFALI[dP]KIISSPLFKTLLSAV; not fully specified (C-terminus); printed as Gly-Phe-Phe-Ala-Leu-Ile-Pro-Lys-Ile-Ile-Ser-Ser-Pro-Leu-Phe-Lys-Thr-Leu-Leu-Ser-Ala-Val-(NH—$CH_2$—$CH_2$—$NH_2$)$_2$; also: C-terminus written (NH--CH2--CH2--NH2)2) [Peptide 2]
- Minimal Inhibitory Concentration A. calcoaceticus (Ac11) [2]: 12.5 µM
- Minimal Inhibitory Concentration E. coli (D21) [3]: 12.5 µM
- % hemolysis at 50 μM peptide [1]: 0%
- Minimal Inhibitory Concentration B. megaterium (Bm11) [4]: 2.5 µM

Molecule: CC[C@H](C)[C@H](NC(=O)CN)C(=O)NCC(=O)N[C@@H](C)C(=O)N[C@H](C(=O)N[C@@H](CC(C)C)C(=O)N[C@@H](CCCCN)C(=O)N[C@H](C(=O)N[C@@H](CC(C)C)C(=O)N[C@H](C(=O)N[C@H](C(=O)NCC(=O)N[C@@H](CC(C)C)C(=O)N1CCC[C@H]1C(=O)N[C@@H](C)C(=O)N[C@@H](CC(C)C)C(=O)N[C@H](C(=O)N[C@@H](CO)C(=O)N[C@@H](Cc1c[nH]c2ccccc12)C(=O)N[C@H](C(=O)N[C@@H](CCCCN)C(=O)N[C@@H](CCCNC(=N)N)C(=O)N[C@@H](CCCCN)C(=O)N[C@@H](CCCNC(=N)N)C(=O)N[C@@H](CCC(N)=O)C(=O)N[C@@H](CCC(N)=O)C(N)=O)[C@@H](C)CC)[C@@H](C)CC)[C@@H](C)O)[C@@H](C)O)C(C)C)C(C)C [Melittin, reference compound]
- surface partition coefficient reported for melittin [5]: 4.5±0.6×10^4 M^-1
- % hemolysis at 50 μM peptide [1]: 100%
- hemolytic activity (dose response) [1]: the most hemolytic
- membrane permeating activity with PC vesicles [6]: highly active

Molecule: KLLLKLLK [Peptide 29]
- Minimal Inhibitory Concentration E. coli (D21) [3]: 3 µM
- % hemolysis at 100 μM [1]: 0%
- Minimal Inhibitory Concentration B. megaterium (Bm11) [4]: 3 µM

Molecule: CC[C@@H](C)[C@@H](NC(=O)[C@H](CC(C)C)NC(=O)[C@H](C)NC(=O)[C@@H]1CCCN1C(=O)[C@H](CC(C)C)NC(=O)CNC(=O)[C@@H](NC(=O)[C@@H](NC(=O)[C@H](CC(C)C)NC(=O)[C@H](NC(=O)[C@H](CCCCN)NC(=O)[C@H](CC(C)C)NC(=O)[C@H](NC(=O)[C@H](C)NC(=O)CNC(=O)[C@@H](NC(=O)CN)[C@@H](C)CC)C(C)C)C(C)C)[C@@H](C)O)[C@@H](C)O)C(=O)N[C@@H](CO)C(=O)N[C@@H](Cc1c[nH]c2ccccc12)C(=O)N[C@H](C(=O)N[C@H](CCCCN)C(=O)N[C@@H](CCCNC(=N)N)C(=O)N[C@@H](CCCCN)C(=O)N[C@@H](CCCNC(=N)N)C(=O)N[C@@H](CCC(N)=O)C(=O)N[C@@H](CCC(N)=O)C(=O)O)[C@@H](C)CC [Peptide 19]
- hemolytic activity (dose response) [1]: practically devoid of hemolytic activity

Molecule: CC[C@H](C)[C@H](NC(=O)[C@H](CCCCN)NC(=O)[C@@H]1CCCN1C(=O)[C@@H](NC(=O)[C@H](CC(C)C)NC(=O)[C@H](C)NC(=O)[C@H](Cc1ccccc1)NC(=O)[C@H](Cc1ccccc1)NC(=O)CN)[C@@H](C)CC)C(=O)N[C@H](C(=O)N[C@@H](CO)C(=O)N[C@@H](CO)C(=O)N1CCC[C@H]1C(=O)N[C@@H](CC(C)C)C(=O)N[C@@H](Cc1ccccc1)C(=O)N[C@@H](CCCCN)C(=O)N[C@H](C(=O)N[C@@H](CC(C)C)C(=O)N[C@@H](CC(C)C)C(=O)N[C@@H](CO)C(=O)N[C@@H](C)C(=O)N[C@H](C(=O)NCC(=O)N[C@@H](CO)C(=O)N[C@@H](C)C(=O)N[C@@H](CC(C)C)C(=O)N[C@@H](CO)C(=O)N[C@@H](CO)C(=O)N[C@@H](CO)C(=O)NCC(=O)NCC(=O)N[C@@H](CCC(N)=O)C(=O)N[C@@H](CCC(=O)NCCN)C(=O)NCCN)C(C)C)[C@@H](C)O)[C@@H](C)CC [Peptide 8, TApar]
- hemolytic activity (dose response) [1]: the most hemolytic

Molecule: Lys-Gly-Phe-Phe-Ala-Leu-Ile-Pro-Lys-Ile-Ile-Ser-Ser-Pro-Leu-Phe-Lys-Thr-Leu-Leu-Ser-Ala-Val-(NH--CH2 --CH2 --NH2)2 (KGFFALI[dP]KIISSPLFKTLLSAV; not fully specified (C-terminus); printed as Lys-Gly-Phe-Phe-Ala-Leu-Ile-Pro-Lys-Ile-Ile-Ser-Ser-Pro-Leu-Phe-Lys-Thr-Leu-Leu-Ser-Ala-Val-(NH—$CH_2$—$CH_2$—$NH_2$)$_2$; also: D-Pro7 (position 7 is Ile), C-terminus written (NH--CH2--CH2--NH2)2) [Peptide 4]
- Minimal Inhibitory Concentration A. calcoaceticus (Ac11) [2]: 7.5 µM
- Minimal Inhibitory Concentration E. coli (D21) [3]: 7.5 µM
- % hemolysis at 50 μM peptide [1]: 0%
- Minimal Inhibitory Concentration B. megaterium (Bm11) [4]: 1.5 µM

Molecule: CC(C)C[C@H](NC(=O)[C@H](CCCCN)NC(=O)[C@@H](CC(C)C)NC(=O)[C@@H](CC(C)C)NC(=O)[C@H](CC(C)C)NC(=O)[C@@H](N)CCCCN)C(=O)N[C@@H](CCCCN)C(=O)N[C@H](CC(C)C)C(=O)N[C@@H](CCCCN)C(=O)N[C@H](CC(C)C)C(=O)N[C@@H](CC(C)C)C(=O)N[C@@H](CCCCN)C(N)=O [Peptide 24]
- hemolytic activity (in words) [1]: devoid of hemolytic activity

Molecule: (Lys-Leu-Leu-Leu-Lys-Leu-Leu-Leu-Lys-Leu-Leu-Lys-Cys-NH2)5 Lys-Leu-Leu-Leu-Lys-Leu-Leu-Leu-Lys-Leu-Leu-Lys-NH2 [Peptide 92]
- Minimal Inhibitory Concentration E. coli (D21) [3]: 0.2 µM
- % hemolysis at 100 μM [1]: 0%
- Minimal Inhibitory Concentration B. megaterium (Bm11) [4]: 0.05 µM

Molecule: KLLLLK [Peptide 28]
- Minimal Inhibitory Concentration E. coli (D21) [3]: 200 µM
- % hemolysis at 100 μM [1]: 0%
- Minimal Inhibitory Concentration B. megaterium (Bm11) [4]: 50 µM

Molecule: CC(C)C[C@H](NC(=O)[C@H](CCCCN)NC(=O)[C@@H](CC(C)C)NC(=O)[C@@H](CC(C)C)NC(=O)[C@H](CC(C)C)NC(=O)[C@@H](N)CCCCN)C(=O)N[C@@H](CC(C)C)C(=O)N[C@H](CC(C)C)C(=O)N[C@@H](CCCCN)C(=O)N[C@H](CC(C)C)C(=O)N[C@@H](CC(C)C)C(=O)N[C@@H](CCCCN)C(N)=O [Peptide 23]
- hemolytic activity (in words) [1]: devoid of hemolytic activity
